Patent publication US20110280862A1, “GEP AND DRUG TRANSPORTER REGULATION, CANCER THERAPY AND PROGNOSIS” (THE UNIVERSITY OF HONG KONG, priority 2010, published 2011)
≈ marks a conversion by molar mass, not a printed value. Read-outs that look alike come from different tables or passages of the source.

Columns and labels:
Format in all cases: cell-based, Human
Hep3B cells [1] = assay: MTT assay, drug IC50, parental cells
Procedure: (§1) Human liver cancer cell lines, Hep3B and HepG2, were purchased from American Type Culture Collection (Manassas, Va.). Culture method has been previously described, for example by Ho J C, et al. Hepatology 2008; 47: 1524-1532 and Cheung S T, et al. Clin Cancer Res 2004; 10: 7629-7636. Stable transfectants for GEP overexpression and suppression have also been described. For chemoresistant populations, the Hep3B cells were plated out and selected under various chemotherapeutic agents of various concentrations at 10-fold dilution for 30 days. The highest dose that still had viable cells over the extended selection period was used and the cells expanded for further selection. The one-step selected cells were then plated out again and selected under escalating doses of the respective drug in a 2-fold manner for another 30 days. The two-step selection process could select a population of cells more resistant to chemotherapeutic agents. The cells selected for resistance to doxorubicin were referred to as doxorubicin resistant cells. […] The drug IC50 value was determined by MTT assay. […] Apoptosis was determined by Annexin V-FITC (AV-FLI) and propidium iodide (PI-FL2) staining using flow cytometry. […] For doxorubicin uptake assays, cells were incubated with or without doxorubicin for 24 hours, and doxorubicin content (FL2) was analyzed by flow cytometry. […]

[2] = test system: cisplatin resistant cells; assay: MTT assay, drug IC50, cisplatin resistant cells
Procedure: as §1

Hep3B cells [3] = assay: Apoptosis assay, Annexin V/PI flow cytometry; settings: doxorubicin 0.5 μg/ml, 24 hours, control or with ABCB5 suppression by siRNA
Procedure: (§2) Human liver cancer cell lines, Hep3B and HepG2, were purchased from American Type Culture Collection (Manassas, Va.). Culture method has been previously described, for example by Ho J C, et al. Hepatology 2008; 47: 1524-1532 and Cheung S T, et al. Clin Cancer Res 2004; 10: 7629-7636. Stable transfectants for GEP overexpression and suppression have also been described. For chemoresistant populations, the Hep3B cells were plated out and selected under various chemotherapeutic agents of various concentrations at 10-fold dilution for 30 days. The highest dose that still had viable cells over the extended selection period was used and the cells expanded for further selection. The one-step selected cells were then plated out again and selected under escalating doses of the respective drug in a 2-fold manner for another 30 days. The two-step selection process could select a population of cells more resistant to chemotherapeutic agents. The cells selected for resistance to doxorubicin were referred to as doxorubicin resistant cells. Similarly, the cells selected under cisplatin were referred to as cisplatin resistant cells. The drug IC50 value was determined by MTT assay. For apoptosis assays, cells were incubated with or without chemotherapeutic agents for 24 to 48 hours. Apoptosis was determined by Annexin V-FITC (AV-FLI) and propidium iodide (PI-FL2) staining using flow cytometry. The total apoptotic population included the early apoptotic cells (high MFI of AV but low PI) plus the late apoptotic cells (high MFI of both AV and PI) of the scatter plot. […] For doxorubicin uptake assays, cells were incubated with or without doxorubicin for 24 hours, and doxorubicin content (FL2) was analyzed by flow cytometry. Pilot studies had examined treatment time-points 0, 1, 3, 6 and 24 hours, and the latter three time-points had similar data profiles. […] There was a time-dependent effect, and thus the data charts presented the data of the 24-hour treatment in comparison with the baseline data. […]

[4] = test system: doxorubicin resistant cells; assay: Apoptosis assay, Annexin V/PI flow cytometry; settings: doxorubicin 0.5 μg/ml, 24 hours, control or with ABCB5 suppression by siRNA
Procedure: as §2

[5] = test system: GEP overexpression transfectants; assay: Apoptosis assay, Annexin V/PI flow cytometry; settings: doxorubicin 0.5 μg/ml, 24 hours, control or with ABCB5 suppression by siRNA
Procedure: as §2

Hep3B cells [6] = assay: Doxorubicin uptake assay by flow cytometry; settings: doxorubicin 0.5 μg/ml, 24 hours, control or with ABCB5 suppression by siRNA
Procedure: as §2

[7] = test system: doxorubicin resistant cells; assay: Doxorubicin uptake assay by flow cytometry; settings: doxorubicin 0.5 μg/ml, 24 hours, control or with ABCB5 suppression by siRNA
Procedure: as §2

[8] = test system: GEP overexpression transfectants; assay: Doxorubicin uptake assay by flow cytometry; settings: doxorubicin 0.5 μg/ml, 24 hours, control or with ABCB5 suppression by siRNA
Procedure: as §2

[9] = test system: doxorubicin resistant cells; assay: MTT assay, drug IC50, doxorubicin resistant cells
Procedure: as §1

Structure (SMILES)	IC50 (Hep3B cells [1]) [mg/L]	increase in resistance compared to parental cells ([2]; cisplatin resistant cells vs parental cells)	IC50 ([2]; cisplatin resistant cells, MTT assay) [mg/L]	net increase in apoptotic populations (Hep3B cells [3]) [%]	net increase in apoptotic populations [4] [%]	net increase in apoptotic populations [5] [%]	IC50 (Hep3B cells [1]; Homo sapiens, Hep3B, read-out: IC50) [mg/L]	population with doxorubicin uptake (Hep3B cells [6]) [%]	population with doxorubicin uptake [7] [%]	population with doxorubicin uptake [8] [%]	IC50 ([9]; Homo sapiens, doxorubicin resistant cells, MTT assay) [mg/L]	increase in resistance compared to parental cells ([9]; doxorubicin resistant cells vs parental cells)
N.N.[Cl][Pt][Cl] [cisplatin]	0.84	more than 10 folds	8.53									
COc1cccc2c1C(=O)c1c(O)c3c(c(O)c1C2=O)C[C@@](O)(C(=O)CO)C[C@@H]3O[C@H]1C[C@H](N)[C@H](O)[C@H](C)O1 [doxorubicin]				12.5	7.7	11.3	0.11 (≈ 0.202 µM)	76.4	31.1	55.4	1.78 (≈ 3.27 µM)	more than 16 folds
